For six compounds, Ratio and Activity results are on record in ChEMBL document CHEMBL1141730, “Destruxin-A4 chlorohydrin, a novel destruxin from fungus OS-F68576: isolation, structure determination, and biological activity as an inducer of erythropoietin” (1998).

The test system of assay [1] is Hep 3B2. The assay is described as follows: Induction of erythropoietin gene expression in human Hep3B cells over expressing human EPO assessed as maximal transcription induction ratio at 1.3 uM by luciferase reporter gene assay. It is filed as functional. On the technique in general: A reporter such as luciferase makes a cellular process visible.
Assay [2] concerns Hep 3B2. As to the kind of experiment: Cytotoxicity against human Hep3B cells at =< 20 uM. It is filed as functional, cell-based.
The subject of assay [3] is Hep 3B2. As to the kind of experiment: Induction of erythropoietin gene expression in human Hep3B cells over expressing human EPO assessed as drug level required to produce 5 fold transcription induction ratio. The assay is classed as functional.
Assay [4] concerns Hep 3B2. The assay is described as follows: Induction of erythropoietin secretion in human Hep3B cells expressing human EPO at 10 uM by ELISA. It is filed as functional. A general note: An ELISA detects its analyte on a solid surface through an enzyme-linked reagent.
Assay [5] has as its system Hep 3B2. The assay is described as follows: Induction of erythropoietin gene expression in human Hep3B cells over expressing human EPO assessed as maximal transcription induction ratio at 2.1 uM by luciferase reporter gene assay. The assay is classed as functional.
Assay [6] concerns Hep 3B2. The assay is described as follows: Induction of erythropoietin gene expression in human Hep3B cells over expressing human EPO assessed as maximal transcription induction ratio at 10 uM by luciferase reporter gene assay. It is filed as functional.
The subject of assay [7] is Hep 3B2. The assay is described as follows: Induction of erythropoietin gene expression in human Hep3B cells over expressing human EPO assessed as maximal transcription induction ratio at 5 uM by luciferase reporter gene assay. The assay is classed as functional.
Assay [8] deals with Hep 3B2. As to the kind of experiment: Induction of erythropoietin gene expression in human Hep3B cells over expressing human EPO assessed as maximal transcription induction ratio at 20 uM by luciferase reporter gene assay. It is filed as functional.

Starred links: 1 amine or outer side, 2 acyl side, 3 side chain; linkers in the order of their positions; H or OH if unused. Non-standard residues stand in square brackets, D forms with d. Residues, ends and D or L forms follow the SMILES beside them. Pentanoyl(2-O,4-OH,5-Cl) = O=C(O)C(O)CC(O)CCl; dLac(3-vinyl) = C=CC[C@@H](O)C(=O)O; NMeI = CC[C@H](C)[C@H](NC)C(=O)O; X1 = C=CC[C@H](O[*:1])C(=O)[*:2]; Hica(2S) = CC(C)C[C@H](O)C(=O)O; dHica = CC(C)C[C@@H](O)C(=O)O; NMeV = CN[C@H](C(=O)O)C(C)C; NMeA = CN[C@@H](C)C(=O)O; βAla = NCCC(=O)O

For the compound `CC[C@H](C)[C@@H]1NC(=O)[C@@H]2CCCN2C(=O)C(CC(O)CCl)OC(=O)CCNC(=O)[C@H](C)N(C)C(=O)[C@H]([C@@H](C)CC)N(C)C1=O` (stereo partly specified) (cyclo(I[NMeI][NMeA][βAla][Pentanoyl(2-O,4-OH,5-Cl)]P)), in assay [1], the Ratio is 28. For the same compound, the figures for the Activity entry in assay [2], in assay [3] and in assay [4] were “Not toxic”, 0.2 µM and 36 mU/ml, respectively.

For the compound `C=CC[C@H]1OC(=O)CCNC(=O)[C@H](C)N(C)C(=O)[C@H](C(C)C)N(C)C(=O)[C@H]([C@@H](C)CC)NC(=O)[C@@H]2CCCN2C1=O` (cyclo(I[NMeV][NMeA][βAla][dLac(3-vinyl)]P)), the Activity entry is “Not toxic” in assay [2], 0.4 µM in assay [3] and 37 mU/ml in assay [4]. The Ratio in assay [5] was determined as 28.

With `CC[C@H](C)[C@@H]1NC(=O)[C@@H]2CCCN2C(=O)[C@@H](CC(C)C)OC(=O)CCNC(=O)[C@H](C)N(C)C(=O)[C@H](C(C)C)N(C)C1=O` (cyclo(I[NMeV][NMeA][βAla][dHica]P)), the Activity entry was “Not toxic” in assay [2], 2 µM in assay [3] and 35 mU/ml in assay [4]. In addition, the Ratio in assay [6] came to 19.

For `C=CC[C@@H]1OC(=O)CCNC(=O)[C@H](C)N(C)C(=O)[C@H]([C@@H](C)CC)N(C)C(=O)[C@H]([C@@H](C)CC)NC(=O)[C@@H]2CCCN2C1=O` [destruxin A4] (cyclo(I[NMeI][NMeA][βAla][X1]P)), the values for the Activity result in assay [2], in assay [3] and in assay [4] were “Not toxic”, 0.9 µM and 35 mU/ml, respectively. Moreover, in assay [7], the Ratio worked out at 23.

Regarding `CC[C@H](C)[C@@H]1NC(=O)[C@@H]2CCCN2C(=O)[C@H](CC(C)C)OC(=O)CCNC(=O)[C@H](C)N(C)C(=O)[C@H]([C@@H](C)CC)N(C)C1=O` [homodestruxin B] (cyclo([Hica(2S)]PI[NMeI][NMeA][βAla])), the Activity result in assay [2] was “Not toxic”; in assay [3], 0.8 µM; in assay [4], 36 mU/ml. Moreover, the Ratio in assay [7] was 18.

Consider `CC[C@H](C)[C@H](NC(=O)[C@@H]1CCCN1C(O)CC(O)CCl)C(=O)N(C)[C@H](C(=O)N(C)[C@@H](C)C(=O)NCCC(=O)O)[C@@H](C)CC` (stereo partly specified), for which the Ratio in assay [8] stood at 1.
